Results taken from patent US11213506B2, “Combination therapy for the treatment or prevention of tumours” (QBIOTICS PTY LTD, priority 2017, dated 2022).

Experiments:
B16-OVA cells [1] = assay: ATP release assay; assay type: cell-based, mouse; settings: both concentrations (500 and 300 μM), within 60 minutes
Description: (§1) A431 (human epidermoid carcinoma), MM649 (human melanoma) and B16-OVA (B16-F10 mouse melanoma cell line stably transfected with chicken ovalbumin) were cultured in RPMI-1640, 10% FCS (complete medium) at 37° C., 5% CO2 in a humidified incubator. BMDCs were cultured in R10 media (RPMI, 10% FCS, 2 mM glutamine, 50 μM beta-mercaptoethanol, Pen/Strep). All cell lines used in this study were confirmed as mycoplasma negative using MycoAlert (Lonza). STR profiling was also performed to confirm the identity of the human cell lines used.
(§2) Cell lines were plated at a density of 10,000 cells per well into clear 96-well plates (Corning, #3595; 100 μl of complete media) and the resultant plates incubated overnight as previously detailed. The following day, media was aspirated from each well and 50 μl of fresh medium was inserted. Stock solutions of Compounds 1, 2, 3 and 4 were diluted to 2× final assay concentration (1 mM and 600 μM) and 50 μl of these dilutions added to the required wells. Ethanol only control solutions were also compiled and administered. At the indicated timepoints, 80 μl of media was removed, centrifuged at 1,200 rpm for 4 mins to pellet cell debris and 50 μl assayed for ATP using a bioluminescence based ATP assay kit (FLAA, Sigma-Aldrich). Relative luminescence units were recorded for each sample using a Hybrid Synergy H4 plate reader (BioTek).

MM649 cells [2] = assay: HMGB1 release assay (ELISA); assay type: cell-based, human; settings: within 120 minutes
Description: as §1
(§3) Cell lines (A431, MM649 and B16-OVA) were plated into T75 cm^2 flasks (Nunc) in 10 ml of complete media and cultured at 37° C., 5% CO2 until they reached 90% confluency. Compounds 1, 2, 3 and 4 were diluted in 5 ml of identical media to a final concentration of 500 and 300 μM and then administered to the cells. Several flasks were prepared such that a kinetic curve of HMGB1 release in response to drug treatment could be established. Ethanol only controls were also generated. At the required timepoint, media was removed from the flask into a 10 ml polypropylene tube that was placed on ice for 5 mins. […] OD450 nm values were determined using a Hybrid Synergy H4 plate reader (BioTek). Absorbance values from drug treated samples were normalized to vehicle treated samples to determine the fold increase in HMGB1 release in response to epoxytigliane treatment.

A431 cells [3] = assay: HMGB1 release assay (ELISA); assay type: cell-based, human; settings: within 120 minutes
Description: as §1, §3

MM649 cells [4] = assay: ATP release assay; assay type: cell-based, human; settings: both concentrations (500 and 300 μM), within 60 minutes
Description: as §1, §2

A431 cells [5] = assay: ATP release assay; assay type: cell-based, human; settings: both concentrations (500 and 300 μM), within 60 minutes
Description: as §1, §2

B16-OVA cells [6] = assay: Calreticulin externalization assay (flow cytometry); assay type: cell-based, mouse; settings: within 60 minutes of treatment
Description: (§4) Calreticulin externalization was determined as previously detailed (Gomez-Cadena et al. 2016). Briefly, cells (A431, MM649, B16-OVA) cultured in complete medium at 37° C., 5% CO2 were detached via trypsinisation, centrifuged at 1,200 rpm and washed ×2 with fresh medium. After an additional round of centrifugation, the resultant cell pellet was resuspended at a concentration of 1×10^6 cells/ml, after which epoxytigliane was added to a final concentration of 500 or 300 μM. Ethanol only controls were also performed. Cell suspensions were incubated at 37° C., 5% CO2 and at the indicated timepoints, 200 μl of sample was removed and incubated with LIVE/DEAD fixable far red stain for 5 mins on ice. Following this, cells were pelleted at 1,200 rpm for 4 mins and washed ×1 with PBS. 500 μl of PBS, 0.25% formaldehyde was then added to each pellet to perform a light fixation without compromising plasma membrane integrity. […]
(§5) Samples were gated by FSC-H v FSC-A first to identify single cells, after which the LIVE/DEAD stain (Ex: 640 nm, Em: 670/14) negative (intact cell) population was analysed for green fluorescence (Ex: 488 nm, Em: 530/30; calreticulin externalization). Mean fluorescence intensity values were subsequently determined and graphed versus time.

MM649 cells [7] = assay: as above; assay type: cell-based, human; settings: within 60 minutes of treatment
Description: as §4, §5

A431 cells [8] = assay: as above; assay type: cell-based, human; settings: within 60 minutes of treatment
Description: as §4, §5

B16-OVA cells [9] = assay: HMGB1 release assay (ELISA); assay type: cell-based, mouse; settings: 120 minutes
Description: as §1, §3

## C/C=C(\C)C(=O)O[C@@H]1[C@@H](C)[C@@]2(O)[C@H]([C@@H]3C(C)(C)[C@]13OC(=O)[C@@H](C)CC)[C@@H]1O[C@]1(CO)[C@@H](O)[C@]1(O)C(=O)C(C)=C[C@H]12 [Compound 1, 12-tigloyl-13-(2-methylbutanoyl)-6,7-epoxy-4,5,9,12,13,20-hexahydroxy-1-tiglien-3-one]
B16-OVA cells [1]
  ATP release: significant release of ATP
MM649 cells [2]
  increase in HMBG1 release, normalised to vehicle treated cells: up to 40%
A431 cells [3]
  increase in HMBG1 release, normalised to vehicle treated cells: up to 40%
MM649 cells [4]
  ATP release: significant release of ATP
A431 cells [5]
  ATP release: significant release of ATP
B16-OVA cells [6]
  calreticulin externalisation (mean fluorescence intensity): significant increases in mean fluorescence intensity
MM649 cells [7]
  calreticulin externalisation (mean fluorescence intensity): significant increases in mean fluorescence intensity
A431 cells [8]
  calreticulin externalisation (mean fluorescence intensity): significant increases in mean fluorescence intensity
B16-OVA cells [9]
  fold increase in HMBG1 release, normalised to vehicle treated cells: greater than 3 fold
